Experimental findings from publication PMC10619691, “Effect of cyclic substituents on the anti-cancer activity and DNA interaction of ruthenium(II) bis-phenanthroline dipyridoquinoline” (Frontiers in Molecular Biosciences, 2023) are described below.

The test system of test [1] is RF I φX174 supercoiled circular DNA. The experiment in a line: supercoiled DNA unwinding by atomic force microscopy. To be noted: AFM; P/D = 14 for POW-12A and VNK-572, P/D = 5 for VNK-754. Type of test: binding. The procedure: FIGURE 7 AFM height images RF I φX174 on a magnesium-soaked mica surface over an area of 2 µm. Samples with the ruthenium complex had solution mixing ratios of P/D = 14 for POW-12A and VNK-572; and of P/D = 5 VNK-754.
Samples for atomic force microscopy (AFM) were prepared on mica crystals cut into squares of approximately 1 cm^2. These squares were stuck with double-sided tape to a 15-mm diameter metal disc. Before sample preparation, Cellotape was used to remove the top layer of the mica crystal, giving a freshly cleaved surface layer on which the sample is to be deposited. Mica was soaked in a 0.1 M solution of MgCl2 for 5 min and blown dry, and Mg^2+ was used to help DNA (negatively charged) adhere to the negatively charged surface of the mica. For solutions containing DNA and POW-12A or VNK-572, a P/D value of 14 was used. For the solution containing DNA and VNK-754, a P/D value of 5 was used. Then, 2 μL of the solution was pipetted onto the mica surface and left for 10 min until the solvent had evaporated, leaving the DNA adhered to the surface. To remove excess salt, each sample was washed three times with 10 µL nanopure water, drying with nitrogen after each wash. AFM was conducted using a Bruker Multi-mode 2 atomic force microscope operated with a NanoScope V controller. ScanAsyst-AIR AFM tips were purchased from Bruker. Scans were run in tapping mode using ScanAsyst, measuring height, peak force error, and phase. The spring constant was adjusted to the spring constant of the tip, which is 0.4 N m^−1 for ScanAsyst-AIR tips; feedback parameters were set automatically by ScanAsyst Auto. Scans were run over 2 μm^2 areas with 512 lines. Images were prepared using NanoScope analysis software. Raw data were processed using first-order flattening and third-order plane fitting. If the background required smoothening due to large molecules on the surface, first-order flattening with a threshold of Z < 0.05 nm was used to improve the appearance of the background. […]

In a further test the test system is DU145 cells. The experiment in a line: cell cycle analysis. Type of test: cell-based, human. On the procedure: (§1) The cell cycle of cervical HeLa and prostate DU145 cancer cells was studied after treatment with VNK-572 and cisplatin, respectively (Figure 3). VNK-572 and cisplatin both reduced the G2 population after 72 h compared to control (e.g., 16%–11% in Hela (p = 0.06) and from 17% to 2% in the DU145 cell line (p = 0.003) for VNK-572) (Figure 3A). […] The DU145 cells saw a decrease in both phases following 72 h of treatment—from 68% to 40% and from 11% to 5% for the G1 and S phases, respectively (Figure 3A).

Test [2] concerns HeLa cells. The experiment in a line: cell cycle analysis. Type of test: cell-based, human. On the procedure:
as §1

Test [3] has as its system HeLa cells. The experiment in a line: Annexin V apoptosis assay. Type of test: cell-based, human. On the procedure:
To further analyze the cytotoxicity mechanisms, annexin V was used to determine whether VNK-572/cisplatin exerts an anti-cancer activity through apoptosis. The Annexin V assay was performed following the established procedure. The steps included treating the cells with the complex for 24, 48, and 72 h in 6-well plates and incubating at 37°C. The cells were then rinsed with PBS, trypsinized, and neutralized using culture media. The cells were then spun in the centrifuge at 2500 RPM for 3 min, and the supernatant was discarded. The cell pellet was then washed first with PBS and then with ×1 binding buffer. The cells were then suspended in approximately 1 mL of binding buffer (1–5 million cells), and approximately 100 ul of this suspension was stained with 5 μL of annexin V-APC dye for 15 min. The cells were then washed with binding buffer and resuspended in 200 μL of binding buffer before being stained with 5 ul of propidium iodide. The cells were then analyzed using a flow cytometer within 4 h.

Turning to `F[P-](F)(F)(F)(F)F.F[P-](F)(F)(F)(F)F.[Ru+2].c1cnc2c(c1)c1ncc3c(c1c1cccnc12)CCC3.c1cnc2c(c1)ccc1cccnc12.c1cnc2c(c1)ccc1cccnc12` [POW-12A], in test [1], the “unwinding of supercoiled circular DNA” value is on record as “unwound”.

`F[P-](F)(F)(F)(F)F.F[P-](F)(F)(F)(F)F.[Ru+2].c1cnc2c(c1)c1ncc3c(c1c1cccnc12)CCCC3.c1cnc2c(c1)ccc1cccnc12.c1cnc2c(c1)ccc1cccnc12` [VNK-572] came in with a S phase population with DU145 cells (DU145, 72 h of treatment, control 11%) of 5%. The molecule further showed a G1 phase population in the test with DU145 cells (DU145, 72 h of treatment, control 68%) of 40%. Besides, the sub-G1 population in the test with DU145 cells (DU145, after 72 h, control 1%) came to 51%; in the test with HeLa cells [2] (72 h of treatment, control 5% (VNK-572), 6% (cisplatin)) it was 12%. The G2 population is on record as 2% in the test on DU145 cells (DU145, after 72 h, control 17%) and 11% in the test with HeLa cells [2] (after 72 h, control 16%). Further, the “changes in G1 / S phases” value in the test on HeLa cells [2] is reported as “only slight changes”. Also, the “Q2 (propidium iodide and annexin V APC-stained cells), late-stage apoptosis” value in the test on HeLa cells [3] (72 h of treatment, control 2%) is recorded as 11%. The “Q4 (annexin V APC), early apoptosis” value in the test with HeLa cells [3] (72 h of treatment, control 14% (VNK-572), 13% (cisplatin)) stood at 26%. For the same molecule, in the test on HeLa cells [3] (after 72 h of treatment), the “Q1 (necrosis)” value is given as < 6%. Moreover, the “unwinding of supercoiled circular DNA” value in test [1] was “unwound”.
